Measurements published in paper PMC9767876, “Development of a robust and convenient dual-reporter high-throughput screening assay for SARS-CoV-2 antiviral drug discovery” (Antiviral Research, 2023).
Read-outs that look alike come from different tables or passages of the source.

Key:
[1] = tested on: SARS-CoV-2_mNeonGreen virus (Wuhan strain); experiment: microbe, parasite or virus in culture; assay type: cell-based; details: for EC50: read-out: EC50 Mean ± SD (antiviral activity)
[2] = in vitro; details: human
[3] = tested on: A549+hACE2+hTMPRSS2_mCherry cells
[4] = Severe acute respiratory syndrome coronavirus 2

C/C=C/C[C@@H](C)[C@@H](O)[C@H]1C(=O)N[C@@H](CC)C(=O)N(C)[C@H](C)C(=O)N(CC)[C@@H](C(C)C)C(=O)N[C@@H](C(C)C)C(=O)N(C)[C@@H](CC(C)C)C(=O)N[C@@H](C)C(=O)N[C@H](C)C(=O)N(C)[C@@H](CC(C)C)C(=O)N(C)[C@@H](CC(C)C)C(=O)N(C)[C@@H](C(C)C)C(=O)N1C [Alisporivir]
EC50 [1, 4]: 1460 ± 130 nM | CC50 [2]: 23.8 ± 4.75 µM

CCn1c(CO)nn(-c2cc(O[C@@H](C)C(F)(F)F)c(C(=O)Nc3c(F)cccc3Cl)cc2F)c1=O [BAY-2402234]
EC50 [1]: 5 ± 1 nM

CN(C)C(=O)COC(=O)Cc1ccc(OC(=O)c2ccc(NC(=N)N)cc2)cc1 [Camostat]
EC50 [1, 4]: > 50000 nM | CC50 [2]: > 50 µM

Cn1cnc(Cn2c(=O)[nH]/c(=N\c3cc4cn(C)nc4cc3Cl)n(Cc3cc(F)c(F)cc3F)c2=O)n1 [Ensitrelvir]
EC50 [1, 4]: 260 ± 43 nM | CC50 [2]: > 50 µM

N#C[C@@]1(c2ccc3c(N)ncnn23)O[C@H](CO)[C@@H](O)[C@H]1O [GS-441524]
selectivity index (SI) [1]: > 30 | EC50 [1, 4]: 1660 ± 420 nM | CC50 [2]: > 50 µM

CC(C)C(=O)OC[C@H]1O[C@@H](n2ccc(NO)nc2=O)[C@H](O)[C@@H]1O [Molnupiravir]
EC50 [1, 4]: 1260 ± 230 nM | CC50 [2]: > 50 µM

CC(C)(C)[C@H](NC(=O)C(F)(F)F)C(=O)N1C[C@H]2[C@@H]([C@H]1C(=O)N[C@H](C#N)C[C@@H]1CCNC1=O)C2(C)C [Nirmatrelvir]
EC50 [1, 4]: 120 ± 17 nM | CC50 [2]: > 50 µM

COc1cccc2[nH]c(C(=O)N[C@@H](CC(C)C)C(=O)N[C@@H](C[C@@H]3CCNC3=O)C(=O)CO)cc12 [PF-00835231]
selectivity index (SI) [1]: > 115 | EC50 [1]: 430 ± 80 nM | CC50 [3]: > 50 µM

CCC(CC)COC(=O)[C@H](C)N[P@](=O)(OC[C@H]1O[C@@](C#N)(c2ccc3c(N)ncnn23)[C@H](O)[C@@H]1O)Oc1ccccc1 [Remdesivir]
EC50 [1, 4]: 40 ± 5 nM | CC50 [2]: > 50 µM
